Consider four compounds from patent publication US9845471B2, “Compositions and methods for treating pancreatic cancer” (Fred Hutchinson Cancer Research Center, priority 2013, dated 2017).

Series [1] relates to Runx3. Description: Runx3 immunoblot after histone deacetylase inhibitor treatment. The series is classed as cell-based, murine. The note with it: KPD carcinoma cells; TSA at 0, 10, or 40 μM; 48 hours of treatment. The protocol: To directly test of this potential involvement of Hdac5 in the post-translational control mechanism of Runx3, a histone deacetylase inhibitor was used to determine whether Runx3 levels increased when deacetylation of Runx3 by Hdac5 was minimized or abrogated (i.e., whether the acetylation level of Runx3 does in fact affect physiologic degradation). Briefly, cells (4×10^5) were plated in 60 cc dishes and trichostatin A (TSA) (Tocris Biosciences, MO, USA), an Hdac5 inhibitor, was added at 0, 10, or 40 μM at 24 hours. Total RNA or whole cell lysates were prepared as described herein after 48 hours of treatment, and the latter resolved on 4-12% Bis-Tris gels, transferred to PVDF and probed with Runx3 antibody.

A further series concerns CFPAC-1 cells. Description: Scratch wound migration assay, CFPAC-1. The series is classed as cell-based, human. The note with it: CFPAC1 cells. The protocol:
(§1) In addition to examining EMT, carcinoma cells were examined for their ability to migrate. For migration assays, cells were first incubated in the presence or absence of TGFβ (5 ng/ml) for 60 hours to achieve growth arrest (in order to separate out effects of proliferation rather than migration; see Izeradjene et al., 2007), then serum starved for 8 hours. Confluent cultures were scratched with a 20 μl pipette tip to generate a wound in three horizontal stripes per well; each experimental condition was performed in triplicate wells. All experiments were conducted in triplicate at least 3 independent times on at least 2 different cell lines from each genetic background. A minimum of six points across each wound were assessed independently by two investigators at the indicated time intervals for the presence of cells within the expanse. Representative photographs were taken from a minimum of 6-8 separate high power fields. For all assays, media was replaced every 24 hours with or without TGFβ and photographed every 24 hours.
(§2) As an initial analysis, the human pancreas cancer cell lines were tested in the scratch wound migration assay described herein. The basal levels of RUNX3 in these human PDA cell lines correlated with their migratory potential, as MiaPaCa-2 cells migrated far less well than CFPAC-1 and Panc-1 cells (FIG. 9B). […]

Series [2] has as its system Panc-1 cells. As to the kind of experiment: Scratch wound migration assay, Panc-1. The series is classed as cell-based, human. On the procedure:
as §1, §2

A further series has as its system MiaPaCa-2 cells. Description: Scratch wound migration assay, MiaPaCa-2. The series is classed as cell-based, human. The note with it: TGFβ. On the procedure:
as §1, §2

Series [3] deals with KP primary carcinoma cells. Description: Scratch wound migration assay, KP. The series is classed as cell-based, murine. On the procedure:
as §1, with “For all assays, media was replaced every 24 hours with or without TGFβ and photographed every 24 hours.” left out
(§3) Dpc4 expression was knocked down using a short hairpin RNA (shRNA) sequence (GAUUAACACUGCAGAGUAA, SEQ ID NO.: 19) targeting murine DPC4 procured in a pGIPZ vector (Open Biosystems). […] DPC4 transcript levels in murine cell lines were analyzed by qRT-PCR using the Taq-man assay per the manufacturer's recommendations (Applied Biosystems, CA, USA) with GAPHD as an internal control.

The subject of series [4] is KPD primary carcinoma cells. As to the kind of experiment: Scratch wound migration assay, KPD. The series is classed as cell-based, murine. On the procedure:
as §1, with “For all assays, media was replaced every 24 hours with or without TGFβ and photographed every 24 hours.” left out
as §3

In another series the test system is KP PDA cells. Description: EMT immunofluorescence (actin stress fibers, E-cadherin), KP. The series is classed as cell-based, murine.
The next series concerns KPD PDA cells. Description: EMT immunofluorescence (actin stress fibers, E-cadherin), KPD. The series is classed as cell-based, murine. The protocol:
First, KPD pancreas cancer cells were probed by immunofluorescence for their ability to undergo epithelial-to-mesenchymal transition (EMT), a program of morphological and molecular changes implicated in the metastatic phenotype. Briefly, cells were grown on glass cover slips and treated for 72 hours in the presence or absence of TGFβ (5 ng/ml); media was replaced every 24 hours. For E-cadherin immunofluorescence, cells were fixed in ice cold methanol:acetone (1:1) for 15 minutes. For F-actin IF, cells were fixed in 4% paraformaldehyde for 30 minutes at RT followed by brief rinse in 0.15M glycine to quench the PFA. After fixation, the cells were washed with PBS and blocked for 1 hour at RT with 2% fatty acid-free BSA/2.5% goat serum. Cells were incubated with E-cadherin primary antibody (1:200, BD Biosciences) or Alexafluor488 F-actin (1:1000) for 1 hour at RT. Alexafluor 488 secondary antibody was used to visualize E-cadherin antibody. Cells were counterstained with DAPI and the slips mounted with Prolong Gold Anti-fade (Invitrogen, CA, USA). Images were acquired using a Nikon Eclipse 80i microscope with NIS Elements Software (Nikon, v3.1).

The subject of series [5] is KPD cells. Description: Cell proliferation assay. The series is classed as cell-based, murine. The note with it: TGFβ 5 ng/ml. The protocol:
For immunocytochemistry, the primary antibody used was Ki-67 (1:25, Dako, Calif., USA), which is a marker of proliferating cells. For cell proliferation assays, equal numbers of murine or human cells (30,000) were plated in triplicate for each cell line and incubated in the presence or absence of TGFβ (5 ng/ml, R&D Systems, USA). Cells were counted manually at 24 hour intervals. Data points represent the mean±SEM of triplicate determinations from at least 3 independent experiments. All experiments were conducted in triplicate at least 3 independent times on at least 2 different cell lines from each genetic background. Representative photographs were taken from a minimum of 6-8 separate high power fields. For all assays, media was replaced every 24 hours with or without TGFβ and photographed every 24 hours.

Series [6] relates to Runx3 complexes with Smad2 and Smad4. As to the kind of experiment: Smad2 immunoprecipitation of Runx3 complexes, KP. The series is classed as cell-based, murine. The note with it: KP cells, incubated with TGFβ prior to lysis. The protocol: (§4) To examine whether the transcriptional activity of Runx3 was exercised in complex with Smad4/Dpc4, immunoprecipitation assays were performed. Briefly, cells were lysed by sonication in 20 mM HEPES (pH 7.5), 400 mM KCl, 5% Glycerol, 5 mM EDTA, 0.4% Np40, supplemented with 1×protease inhibitor (Sigma, MO, USA), phosphotase inhibitor cocktails I and II (Sigma, MO, USA), and the lysates cleared by centrifugation. Extracts were diluted to 20 mM HEPES (pH 7.8), 50 mM KCl, 5% Glycerol, 2.5 mM MgCl2, 0.05% NP40 and incubated with Smad2 antibody (2.5 μg/ml from AbCam, Cambridge Mass., USA) and Protein A-Sepharose beads for 4 hours at 4° C. Beads were washed and co-purified proteins liberated in boiling Laemmli buffer and analyzed by immunoblot with the appropriate primary antibody. ExactaCruz secondary antibodies (Santa Cruz biotechnology) were used to reduce background from IgG.

Series [7] has the same test system. As to the kind of experiment: Smad2 immunoprecipitation of Runx3 complexes, KPD. The note with it: KPD cells, incubated with TGFβ prior to lysis. The series is classed as cell-based, murine. On the procedure: as §4
For the next series, the system named is KP cells. Description: Tail vein pulmonary metastasis assay in nude mice, KP cells. The series is classed as in vivo, nude mice (Athymic NCr-nu/nu). The note with it: KP cells with Dpc4 extinguished, tail vein injection. The protocol: (§5) Purified KP and KPD carcinoma cells were also injected into the circulation of immunocompromised mice and scored for their ability to form pulmonary metastases. Briefly, murine cells were studied in a classical tail vein metastasis assay in nude mice (Athymic NCr-nu/nu). At least 3 animals were injected (1×10^5 or 1×10^6 cells/injection, depending on the experiment) for each independently derived cell line and all experiments were performed at least twice. […] Metastatic disease burdens were assessed as a ratio of cross-sectional area occupied by tumor to whole lung area using ImageJ software (NIH).
as §3, with “Biosystems). A control sequence (scrambled, scr) was used as a negative control. High-titer lentivirus was made and PDA cells were infected and selected for stable expression of the DPC4-specific shRNA. Knockdown was confirmed by qRT-PCR.” for “Biosystems).”

The test system of series [8] is KPD cells. As to the kind of experiment: Tail vein pulmonary metastasis assay in nude mice, KPD cells. The series is classed as in vivo, nude mice (Athymic NCr-nu/nu). The note with it: KPD cells with complete knockdown of Dpc4, tail vein injection. The protocol:
as §5
as §3, with “Biosystems). A control sequence (scrambled, scr) was used as a negative control. High-titer lentivirus was made and PDA cells were infected and selected for stable expression of the DPC4-specific shRNA. Knockdown was confirmed by qRT-PCR.” for “Biosystems).”

Series [9] has as its system Runx3. Description: Runx3 immunoblot after targeted depletion of Smad4. The series is classed as cell-based, murine. The note with it: KPD cells; converse of the increase seen with Smad4 over-expression. The protocol:
For immunoblot analysis, whole cell lysates were prepared using 1×RIPA buffer (Millipore, CA, USA) supplemented with 1×protease inhibitor (Sigma, MO, USA) and phosphotase inhibitor cocktails I and II (Sigma, MO, USA). For immunoblot experiments, 20 μg (murine) or 30 μg (human) whole cell protein lysate were separated on a 4-12% Bis-tris gel system (Invitrogen, CA, USA) and transferred to PVDF membrane (Millipore, CA, USA). Primary antibodies used were Dpc4, p16, p19, Actin (all at 1:2000, Santa Cruz, Calif., USA), and p53 (1:1000, Vector Lab, CA, USA).
Dpc4 expression was knocked down using a short hairpin RNA (shRNA) sequence (GAUUAACACUGCAGAGUAA, SEQ ID NO.: 19) targeting murine DPC4 procured in a pGIPZ vector (Open Biosystems). A control sequence (scrambled, scr) was used as a negative control. High-titer lentivirus was made and PDA cells were infected and selected for stable expression of the DPC4-specific shRNA. Knockdown was confirmed by qRT-PCR. Briefly, total RNA was reverse transcribed using the high capacity cDNA synthesis kit (Applied Biosystems, CA, USA) and qRT-PCR performed using SYBER green supermix (Bio-Rad, VA, USA) on a CFX-96 thermal cycler. […] DPC4 transcript levels in murine cell lines were analyzed by qRT-PCR using the Taq-man assay per the manufacturer's recommendations (Applied Biosystems, CA, USA) with GAPHD as an internal control.

Series [10] deals with Panc-1 cells. As to the kind of experiment: Pulmonary metastasis assay in NOD/SCID mice. The series is classed as in vivo. The protocol:
as §5
(§6) Human RUNX3 was cloned into pBABE hygromycin vector and stable RUNX3 expressing HEK293T cells were prepared using a similar protocol to that used to make the murine version. Also, shRNA sequences targeting human RUNX3 to knock down expression were procured in pGIPZ vectors (Open Biosystems). High-titer lentivirus was made and PDA cells were infected and selected for stable expression of the […] shRNA (SEQ ID NO.: 20, CGGCAGAAGCUGGAGGACC). Knockdown was confirmed by qRT-PCR.
To determine whether overexpression of RUNX3 in human PDA cells also promotes metastasis, pulmonary metastasis assays were performed using NOD/SCID mice.

For another series, the system named is COL6A1. Description: COL6A1 expression by qRT-PCR. The note with it: shRUNX3 transfected Panc-1 cells vs scrambled. The series is classed as cell-based, human. On the procedure:
as §6
Transcript levels in Runx3-overexpressing carcinoma cells were determined using qRT-PCR as described herein. The Spp1 mouse forward and reverse primers used were SEQ ID NO.:5 ([…]) and SEQ ID NO.:6 ([…]), respectively; the Col6A1 mouse forward and reverse primers were SEQ ID NO.:7 (CTGCTGCTACAAGCCTGCT) and SEQ ID NO.:8 (CTGCTGCTACAAGCCTGCT), respectively; and the COL6A1 human forward and reverse primers were SEQ ID NO.:9 ([…]) and SEQ ID NO.:10 ([…]), respectively.
(In general: Real-time PCR tracks product formation cycle by cycle.)

For the compound `CC(/C=C/C(=O)NO)=C\[C@@H](C)C(=O)c1ccc(N(C)C)cc1` [TSA, trichostatin A], the “levels of Runx3 (immunoblot)” value in the series on Runx3 [1] is reported as “raise levels of Runx3 to approximately those found in KP cells”.
As for TGFβ, the migration entry in the series on CFPAC-1 cells (TGFβ) is “promoted or left unaffected”; in the series with Panc-1 cells [2] (TGFβ), “promoted or left unaffected”; in the series on MiaPaCa-2 cells it was “modestly inhibited the migration”; in series [3] (TGFβ 5 ng/ml), “stimulated”; in series [4] (TGFβ 5 ng/ml), “did not respond in kind”. For the same compound, the EMT entry in the series with KP PDA cells (TGFβ 5 ng/ml, 72 hours) was “readily underwent TGFβ-induced EMT”. Further, the “EMT (actin stress fibers, surface E-cadherin)” value in the series with KPD PDA cells (KPD PDA cells, TGFβ 5 ng/ml, 72 hours) was “EMT is essentially intact”. Further, the “growth arrest (proliferation)” value in the series with KPD cells [5] is on record as “only partially growth-arrested”. In addition, the Runx3/Smad2/Smad4 complex formation entry is given as “favor complex formation” in series [6] and “inhibit it” in [7].
Regarding “shDpc4: short hairpin RNA (GAUUAACACUGCAGAGUAA, SEQ ID NO.: 19) targeting murine DPC4 in a pGIPZ vector”, the migration entry in series [3] (Dpc4 depleted by shRNA) was “migration increased slightly”. Further, in [4] (complete ablation of Dpc4 expression by shRNA), the basal migratory behavior entry is listed as “increased their basal migratory behavior modestly”. For the same compound, the metastatic potential result is recorded as “did not diminish their already considerable metastatic potential” with KP cells and “enhanced their metastatic potential” in the series on KPD cells [8]. The “Runx3 levels (immunoblot)” value in the series with Runx3 [9] is reported as “had the converse effect”. Besides, the “EMT in response to TGFβ” value in the series with KP PDA cells (late ablation of Dpc4 by shRNA) is “did not completely prevent EMT”; in the series on KPD PDA cells (KPD carcinoma cells, complete loss of Dpc4 expression by shRNA) it was “some morphological features of EMT in response to TGFβ also persisted”.
For “shRUNX3: shRNA targeting human RUNX3 (SEQ ID NO.: 20, CGGCAGAAGCUGGAGGACC) in pGIPZ vector, delivered by lentivirus”, the migration result in the series with CFPAC-1 cells (stable RUNX3-specific shRNA) and with Panc-1 cells [2] (stable RUNX3-specific shRNA) was “inhibited their migration” in each case. In addition, the liver weights with Panc-1 cells [10] (NOD/SCID mice injected with RUNX3 knockdown Panc-1 cells, n=3) came to 0.53 ± 0.06 g. Further, the “ability to seed and support secondary metastases to the liver” value with Panc-1 cells [10] (RUNX3-depleted Panc-1 cells in NOD/SCID mice) is “considerably decreased”. Besides, the “number of lung metastases” value in the series on Panc-1 cells [10] (RUNX3-knockdown vs control Panc-1 cells in NOD/SCID mice) was “comparable number of lung metastases”. In addition, the COL6A1 transcript levels result in the series with COL6A1 was “reduces COL6A1 transcript levels”.
